Test results: patent US6355799B1, “Substituted benzene compounds, process for their preparation, and herbicidal and defoliant compositions containing them” (ISK Americas Incorporated, priority 1997, dated 2002)

Legend:
Format in all cases: in vivo
[1] = tested on: redroot pigweed (Amaranthus retroflexus, AMARE); test: Pre-emerge test, greenhouse herbicide activity screening; details: for Pre-emerge Herbicidal Activity, phytotoxicity rating (0-100), AMARE: rated 14 days after application, 0 = no damage, 100 = complete death; for phytotoxicity rating AMARE: pre-emerge, 14 days after application, scale 0-100
Method in brief: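 Sandy loam pots; pre-emerge: sown 1 d pre-spray, surface-watered after, then bottom-watered. Post-emerge: sown 8–21 d before, 2–3 leaf stage, + 0.25% v/v NIS, bottom-watered. Acetone, 187 l/ha track spray, 15–1000 g ai/ha. 0–100 injury score, day 14.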

[2] = tested on: barnyardgrass (Echinochloa crus-galli, ECHCG); test: as above; details: for Pre-emerge Herbicidal Activity, phytotoxicity rating (0-100), ECHCG: rated 14 days after application, 0 = no damage, 100 = complete death; for phytotoxicity rating ECHCG: pre-emerge, 14 days after application, scale 0-100
Method in brief: (§1)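 Visual ratings on a 0-100 scale (0 no damage, 100 all plants dead) were taken at 14 days after treatment. Rates of 15-1000 g ai/ha in acetone, 187 l/ha, were sprayed onto soil one day after planting (pre-emerge) or onto 2-3 leaf plants with 0.25% v/v surfactant (post-emerge).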

[3] = tested on: green foxtail (Setaria viridis, SETVI); test: as above; details: for Pre-emerge Herbicidal Activity, phytotoxicity rating (0-100), SETVI: rated 14 days after application, 0 = no damage, 100 = complete death; for phytotoxicity rating SETVI: pre-emerge, 14 days after application, scale 0-100
Method in brief: as §1

[4] = tested on: ivyleaf morningglory (Ipomoea hederacea, IPOHE); test: as above; details: for Pre-emerge Herbicidal Activity, phytotoxicity rating (0-100), IPOHE: rated 14 days after application, 0 = no damage, 100 = complete death; for phytotoxicity rating IPOHE: pre-emerge, 14 days after application, scale 0-100
Method in brief: as §1

[5] = tested on: johnsongrass (Sorghum halepense, SORHA); test: as above; details: for Pre-emerge Herbicidal Activity, phytotoxicity rating (0-100), SORHA: rated 14 days after application, 0 = no damage, 100 = complete death; for phytotoxicity rating SORHA: pre-emerge, 14 days after application, scale 0-100
Method in brief: as §1

[6] = tested on: lambsquarters (Chenopodium album, CHEAL); test: as above; details: for Pre-emerge Herbicidal Activity, phytotoxicity rating (0-100), CHEAL: rated 14 days after application, 0 = no damage, 100 = complete death; for phytotoxicity rating CHEAL: pre-emerge, 14 days after application, scale 0-100
Method in brief: as §1

[7] = tested on: large crabgrass (Digitaria sanguinalis, DIGSA); test: as above; details: for Pre-emerge Herbicidal Activity, phytotoxicity rating (0-100), DIGSA: rated 14 days after application, 0 = no damage, 100 = complete death; for phytotoxicity rating DIGSA: pre-emerge, 14 days after application, scale 0-100
Method in brief: as §1

[8] = tested on: sicklepod (Cassia obtusifolia, CASOB); test: as above; details: for Pre-emerge Herbicidal Activity, phytotoxicity rating (0-100), CASOB: rated 14 days after application, 0 = no damage, 100 = complete death; for phytotoxicity rating CASOB: pre-emerge, 14 days after application, scale 0-100
Method in brief: as §1

[9] = tested on: velvetleaf (Abutilon theophrasti, ABUTH); test: as above; details: for Pre-emerge Herbicidal Activity, phytotoxicity rating (0-100), ABUTH: rated 14 days after application, 0 = no damage, 100 = complete death; for phytotoxicity rating ABUTH: pre-emerge, 14 days after application, scale 0-100
Method in brief: as §1

[10] = tested on: field corn (Zea mays L., var. Dekalb 535, CORN); test: Pre-emerge test, crop safety; details: for Pre-emerge phytotoxicity rating (0-100), crop damage, CORN: rated 14 days after application, 0 = no damage, 100 = complete death; for phytotoxicity rating CORN (crop damage): pre-emerge, 14 days after application, scale 0-100
Method in brief: (§2)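 Plants grown in 10 cm pots of sandy loam mix received acetone-dissolved compounds through a moving flat-fan nozzle. Doses ranged from 15 to 1000 g ai/ha. Pre-emerge pots were seeded one day earlier, post-emerge pots 8–21 days earlier. Fourteen days on, each pot was graded 0–100 for damage.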

[11] = tested on: upland rice (Oryza sp., var. Tebonnet, RICE); test: Pre-emerge test, crop safety; details: for Pre-emerge phytotoxicity rating (0-100), crop damage, RICE: rated 14 days after application, 0 = no damage, 100 = complete death; for phytotoxicity rating RICE (crop damage): pre-emerge, 14 days after application, scale 0-100
Method in brief: as §2

[12] = tested on: barnyardgrass (Echinochloa crus-galli, ECHCG); test: Post-emerge test, greenhouse herbicide activity screening; details: post-emerge, 14 days after application, rating scale 0-100
Method in brief: as §1

[13] = tested on: green foxtail (Setaria viridis, SETVI); test: as above; details: post-emerge, 14 days after application, rating scale 0-100
Method in brief: as §1

[14] = tested on: ivyleaf morningglory (Ipomoea hederacea, IPOHE); test: as above; details: post-emerge, 14 days after application, rating scale 0-100
Method in brief: as §1

[15] = tested on: johnsongrass (Sorghum halepense, SORHA); test: as above; details: post-emerge, 14 days after application, rating scale 0-100
Method in brief: as §1

[16] = tested on: lambsquarters (Chenopodium album, CHEAL); test: as above; details: post-emerge, 14 days after application, rating scale 0-100
Method in brief: as §1

[17] = tested on: large crabgrass (Digitaria sanguinalis, DIGSA); test: as above; details: post-emerge, 14 days after application, rating scale 0-100
Method in brief: as §1

[18] = tested on: redroot pigweed (Amaranthus retroflexus, AMARE); test: as above; details: post-emerge, 14 days after application, rating scale 0-100
Method in brief: as §1

[19] = tested on: sicklepod (Cassia obtusifolia, CASOB); test: as above; details: post-emerge, 14 days after application, rating scale 0-100
Method in brief: as §1

[20] = tested on: velvetleaf (Abutilon theophrasti, ABUTH); test: as above; details: post-emerge, 14 days after application, rating scale 0-100
Method in brief: as §1

[21] = tested on: field corn (Zea mays L., var. Dekalb 535, CORN); test: Post-emerge test, crop safety; details: post-emerge, 14 days after application, rating scale 0-100
Method in brief: as §1

[22] = tested on: upland rice (Oryza sp., var. Tebonnet, RICE); test: Post-emerge test, crop safety; details: post-emerge, 14 days after application, rating scale 0-100
Method in brief: as §1

COc1c(Cl)cc(F)c(-n2c(=O)cc(C(F)(F)F)n(C)c2=O)c1NC(=O)C=Cc1ccco1 [2-92]
Pre-emerge Herbicidal Activity, phytotoxicity rating (0-100), AMARE ([1]; 63 g ai/ha): 50
Pre-emerge Herbicidal Activity, phytotoxicity rating (0-100), AMARE ([1]; 250 g ai/ha): 100
Pre-emerge Herbicidal Activity, phytotoxicity rating (0-100), ECHCG ([2]; 63 g ai/ha): 0
Pre-emerge Herbicidal Activity, phytotoxicity rating (0-100), ECHCG ([2]; 250 g ai/ha): 20
Pre-emerge Herbicidal Activity, phytotoxicity rating (0-100), SETVI ([3]; 63 g ai/ha): 30
Pre-emerge Herbicidal Activity, phytotoxicity rating (0-100), SETVI ([3]; 250 g ai/ha): 90
Pre-emerge Herbicidal Activity, phytotoxicity rating (0-100), IPOHE ([4]; 63 g ai/ha): 30
Pre-emerge Herbicidal Activity, phytotoxicity rating (0-100), IPOHE ([4]; 250 g ai/ha): 100
Pre-emerge Herbicidal Activity, phytotoxicity rating (0-100), SORHA ([5]; 63 g ai/ha): 0
Pre-emerge Herbicidal Activity, phytotoxicity rating (0-100), SORHA ([5]; 250 g ai/ha): 40
Pre-emerge Herbicidal Activity, phytotoxicity rating (0-100), CHEAL ([6]; 63 g ai/ha): 100
Pre-emerge Herbicidal Activity, phytotoxicity rating (0-100), CHEAL ([6]; 250 g ai/ha): 100
Pre-emerge Herbicidal Activity, phytotoxicity rating (0-100), DIGSA ([7]; 63 g ai/ha): 0
Pre-emerge Herbicidal Activity, phytotoxicity rating (0-100), DIGSA ([7]; 250 g ai/ha): 20
Pre-emerge Herbicidal Activity, phytotoxicity rating (0-100), CASOB ([8]; 63 g ai/ha): 40
Pre-emerge Herbicidal Activity, phytotoxicity rating (0-100), CASOB ([8]; 250 g ai/ha): 100
Pre-emerge Herbicidal Activity, phytotoxicity rating (0-100), ABUTH ([9]; 63 g ai/ha): 100
Pre-emerge Herbicidal Activity, phytotoxicity rating (0-100), ABUTH ([9]; 250 g ai/ha): 100
Pre-emerge phytotoxicity rating (0-100), crop damage, CORN ([10]; 63 g ai/ha): 0
Pre-emerge phytotoxicity rating (0-100), crop damage, CORN ([10]; 250 g ai/ha): 20
Pre-emerge phytotoxicity rating (0-100), crop damage, RICE ([11]; 63 g ai/ha): 0
Pre-emerge phytotoxicity rating (0-100), crop damage, RICE ([11]; 250 g ai/ha): 10
phytotoxicity rating ECHCG ([12]; 63 g ai/ha): 0
phytotoxicity rating ECHCG ([12]; 250 g ai/ha): 0
phytotoxicity rating SETVI ([13]; 63 g ai/ha): 0
phytotoxicity rating SETVI ([13]; 250 g ai/ha): 0
phytotoxicity rating IPOHE ([14]; 63 g ai/ha): 20
phytotoxicity rating IPOHE ([14]; 250 g ai/ha): 100
phytotoxicity rating SORHA ([15]; 63 g ai/ha): 0
phytotoxicity rating SORHA ([15]; 250 g ai/ha): 0
phytotoxicity rating CHEAL ([16]; 63 g ai/ha): 20
phytotoxicity rating CHEAL ([16]; 250 g ai/ha): 80
phytotoxicity rating DIGSA ([17]; 63 g ai/ha): 0
phytotoxicity rating DIGSA ([17]; 250 g ai/ha): 0
phytotoxicity rating AMARE ([18]; 63 g ai/ha): 20
phytotoxicity rating AMARE ([18]; 250 g ai/ha): 50
phytotoxicity rating CASOB ([19]; 63 g ai/ha): 0
phytotoxicity rating CASOB ([19]; 250 g ai/ha): 30
phytotoxicity rating ABUTH ([20]; 63 g ai/ha): 100
phytotoxicity rating ABUTH ([20]; 250 g ai/ha): 100
phytotoxicity rating CORN ([21]; 63 g ai/ha): 0
phytotoxicity rating CORN ([21]; 250 g ai/ha): 30
phytotoxicity rating RICE ([22]; 63 g ai/ha): 10
phytotoxicity rating RICE ([22]; 250 g ai/ha): 60

COc1c(Br)cc(F)c(-n2c(=O)cc(C(F)(F)F)n(C)c2=O)c1N(C(=O)C=Cc1ccccc1)C(=O)C=Cc1ccccc1 [2-178]
phytotoxicity rating AMARE ([1]; 63 g ai/ha): 0
phytotoxicity rating AMARE ([1]; 250 g ai/ha): 0
phytotoxicity rating ECHCG ([2]; 63 g ai/ha): 0
phytotoxicity rating ECHCG ([2]; 250 g ai/ha): 0
phytotoxicity rating SETVI ([3]; 63 g ai/ha): 0
phytotoxicity rating SETVI ([3]; 250 g ai/ha): 0
phytotoxicity rating IPOHE ([4]; 63 g ai/ha): 0
phytotoxicity rating IPOHE ([4]; 250 g ai/ha): 0
phytotoxicity rating SORHA ([5]; 63 g ai/ha): 0
phytotoxicity rating SORHA ([5]; 250 g ai/ha): 0
phytotoxicity rating CHEAL ([6]; 63 g ai/ha): 20
phytotoxicity rating CHEAL ([6]; 250 g ai/ha): 0
phytotoxicity rating DIGSA ([7]; 63 g ai/ha): 0
phytotoxicity rating DIGSA ([7]; 250 g ai/ha): 0
phytotoxicity rating CASOB ([8]; 63 g ai/ha): 0
phytotoxicity rating CASOB ([8]; 250 g ai/ha): 0
phytotoxicity rating ABUTH ([9]; 63 g ai/ha): 0
phytotoxicity rating ABUTH ([9]; 250 g ai/ha): 0
phytotoxicity rating CORN (crop damage) ([10]; 63 g ai/ha): 0
phytotoxicity rating CORN (crop damage) ([10]; 250 g ai/ha): 0
phytotoxicity rating RICE (crop damage) ([11]; 63 g ai/ha): 0
phytotoxicity rating RICE (crop damage) ([11]; 250 g ai/ha): 0
ECHCG phytotoxicity rating ([12]; 63 g ai/ha): 0
ECHCG phytotoxicity rating ([12]; 250 g ai/ha): 0
SETVI phytotoxicity rating ([13]; 63 g ai/ha): 0
SETVI phytotoxicity rating ([13]; 250 g ai/ha): 0
IPOHE phytotoxicity rating ([14]; 63 g ai/ha): 30
IPOHE phytotoxicity rating ([14]; 250 g ai/ha): 20
SORHA phytotoxicity rating ([15]; 63 g ai/ha): 0
SORHA phytotoxicity rating ([15]; 250 g ai/ha): 0
CHEAL phytotoxicity rating ([16]; 63 g ai/ha): 30
CHEAL phytotoxicity rating ([16]; 250 g ai/ha): 40
DIGSA phytotoxicity rating ([17]; 63 g ai/ha): 0
DIGSA phytotoxicity rating ([17]; 250 g ai/ha): 0
AMARE phytotoxicity rating ([18]; 63 g ai/ha): 50
AMARE phytotoxicity rating ([18]; 250 g ai/ha): 70
CASOB phytotoxicity rating ([19]; 63 g ai/ha): 0
CASOB phytotoxicity rating ([19]; 250 g ai/ha): 0
ABUTH phytotoxicity rating ([20]; 63 g ai/ha): 40
ABUTH phytotoxicity rating ([20]; 250 g ai/ha): 50
CORN phytotoxicity rating (crop damage) ([21]; 63 g ai/ha): 0
CORN phytotoxicity rating (crop damage) ([21]; 250 g ai/ha): 0
RICE phytotoxicity rating (crop damage) ([22]; 63 g ai/ha): 0
RICE phytotoxicity rating (crop damage) ([22]; 250 g ai/ha): 0
